Columns and labels:
[1] = Selectivity index, ratio of IC50 for cytotoxicity against human HDF cells to IC50 for anticancer activity against human SK-OV-3 cells; type: cell-based; settings: HDF cells versus SK-OV-3 cells, read-out: Ratio IC50
SK-OV-3 = assay: Anticancer activity against human SK-OV-3 cells assessed as cell growth inhibition incubated for 72 hrs by SRB assay; type: functional, cell-based
PC-3 = assay: Anticancer activity against human PC-3 cells assessed as cell growth inhibition incubated for 72 hrs by SRB assay; type: functional, cell-based
[2] = Selectivity index, ratio of IC50 for cytotoxicity against human HDF cells to IC50 for anticancer activity against human PC-3 cells; type: toxicity, cell-based; settings: HDF cells versus PC-3 cells, read-out: Ratio IC50
[3] = Cytotoxicity against human HDF cells assessed as cell growth inhibition incubated for 72 hrs by SRB assay; type: toxicity, cell-based; settings: HDF cells (normal human dermal fibroblasts, NHDF)
[4] = Selectivity index, ratio of IC50 for cytotoxicity against human HDF cells to IC50 for anticancer activity against human SK-BR-3 cells; type: toxicity, cell-based; settings: HDF cells versus SK-BR-3 cells, read-out: Ratio IC50
SK-BR-3 = assay: Anticancer activity against human SK-BR-3 cells assessed as cell growth inhibition incubated for 72 hrs by SRB assay; type: functional, cell-based

## CO[C@H]1/C=C\C=C(/C)C(=O)NC2=CC(=O)C(NCc3cn(CC4OCCO4)nn3)=C(C[C@@H](C)C[C@H](OC)[C@H](O)[C@@H](C)/C=C(\C)[C@@H]1OC(N)=O)C2=O
[1]
  selectivity ratio: 1.77
SK-OV-3; Homo sapiens, SK-OV-3, 72 h
  IC50: 1730 nM
PC-3; Homo sapiens, PC-3, 72 h
  IC50: 1770 nM
[2]
  selectivity ratio: 1.73
[3]
  IC50 at 72 h: 3060 nM
[4]
  selectivity ratio: 1.71
SK-BR-3; Homo sapiens, SK-BR-3, 72 h
  IC50: 1790 nM

## CCN(CC)CCn1cc(CNC2=C3C[C@@H](C)C[C@H](OC)[C@H](O)[C@@H](C)/C=C(\C)[C@H](OC(N)=O)[C@@H](OC)/C=C\C=C(/C)C(=O)NC(=CC2=O)C3=O)nn1
[1]
  selectivity ratio: 1.85
SK-OV-3; Homo sapiens, SK-OV-3, 72 h
  IC50: 520 nM
PC-3; Homo sapiens, PC-3, 72 h
  IC50: 510 nM
[2]
  selectivity ratio: 1.88
[3]
  IC50 at 72 h: 960 nM
[4]
  selectivity ratio: 1.63
SK-BR-3; Homo sapiens, SK-BR-3, 72 h
  IC50: 590 nM

## CO[C@H]1/C=C\C=C(/C)C(=O)NC2=CC(=O)C(NCCn3cc(CC(=O)O)nn3)=C(C[C@@H](C)C[C@H](OC)[C@H](O)[C@@H](C)/C=C(\C)[C@@H]1OC(N)=O)C2=O
[1]
  selectivity ratio: 1.45
SK-OV-3; Homo sapiens, SK-OV-3, 72 h
  IC50: 2680 nM
PC-3; Homo sapiens, PC-3, 72 h
  IC50: 2120 nM
[2]
  selectivity ratio: 1.83
[3]
  IC50 at 72 h: 3880 nM
[4]
  selectivity ratio: 1.37
SK-BR-3; Homo sapiens, SK-BR-3, 72 h
  IC50: 2840 nM

## COC1=C2C[C@@H](C)C[C@H](OC)[C@H](O)[C@@H](C)/C=C(\C)[C@H](OC(N)=O)[C@@H](OC)/C=C\C=C(/C)C(=O)NC(=CC1=O)C2=O [GELDANAMYCIN]
SK-OV-3; sk-ov-3
  IC50: 640 nM
PC-3; pc-3
  IC50: 600 nM
[3]
  IC50 at 72 h: 1050 nM
SK-BR-3; sk-br-3
  IC50: 580 nM

## CO[C@H]1/C=C\C=C(/C)C(=O)NC2=CC(=O)C(NCc3cn(Cc4ccc([N+](=O)[O-])cc4)nn3)=C(C[C@@H](C)C[C@H](OC)[C@H](O)[C@@H](C)/C=C(\C)[C@@H]1OC(N)=O)C2=O
[1]
  selectivity ratio: 1.05
SK-OV-3; Homo sapiens, SK-OV-3, 72 h
  IC50: 740 nM
PC-3; Homo sapiens, PC-3, 72 h
  IC50: 690 nM
[2]
  selectivity ratio: 1.28
[3]
  IC50 at 72 h: 780 nM
[4]
  selectivity ratio: 1.05
SK-BR-3; Homo sapiens, SK-BR-3, 72 h
  IC50: 740 nM

## CO[C@H]1/C=C\C=C(/C)C(=O)NC2=CC(=O)C(NCc3cn(C4CCCCCC4)nn3)=C(C[C@@H](C)C[C@H](OC)[C@H](O)[C@@H](C)/C=C(\C)[C@@H]1OC(N)=O)C2=O
[1]
  selectivity ratio: 1.52
SK-OV-3; Homo sapiens, SK-OV-3, 72 h
  IC50: 1120 nM
PC-3; Homo sapiens, PC-3, 72 h
  IC50: 1050 nM
[2]
  selectivity ratio: 1.62
[3]
  IC50 at 72 h: 1700 nM
[4]
  selectivity ratio: 1.65
SK-BR-3; Homo sapiens, SK-BR-3, 72 h
  IC50: 1030 nM

## CO[C@H]1/C=C\C=C(/C)C(=O)NC2=CC(=O)C(NCc3cn([C@@H]4O[C@H](COC(C)=O)[C@H](OC(C)=O)[C@H](OC(C)=O)[C@H]4OC(C)=O)nn3)=C(C[C@@H](C)C[C@H](OC)[C@H](O)[C@@H](C)/C=C(\C)[C@@H]1OC(N)=O)C2=O
[1]
  selectivity ratio: 1.24
SK-OV-3; Homo sapiens, SK-OV-3, 72 h
  IC50: 780 nM
PC-3; Homo sapiens, PC-3, 72 h
  IC50: 910 nM
[2]
  selectivity ratio: 1.07
[3]
  IC50 at 72 h: 970 nM
[4]
  selectivity ratio: 1.29
SK-BR-3; Homo sapiens, SK-BR-3, 72 h
  IC50: 770 nM

## CO[C@H]1/C=C\C=C(/C)C(=O)NC2=CC(=O)C(NCc3cn([C@@H]4O[C@H](CO)[C@@H](O)[C@H](O)[C@H]4O)nn3)=C(C[C@@H](C)C[C@H](OC)[C@H](O)[C@@H](C)/C=C(\C)[C@@H]1OC(N)=O)C2=O
[1]
  selectivity ratio: 1.87
SK-OV-3; Homo sapiens, SK-OV-3, 72 h
  IC50: 540 nM
PC-3; Homo sapiens, PC-3, 72 h
  IC50: 600 nM
[2]
  selectivity ratio: 1.68
[3]
  IC50 at 72 h: 1010 nM
[4]
  selectivity ratio: 1.36
SK-BR-3; Homo sapiens, SK-BR-3, 72 h
  IC50: 740 nM

## CO[C@H]1/C=C\C=C(/C)C(=O)NC2=CC(=O)C(NCc3cn(Cc4ccc([N+](=O)[O-])o4)nn3)=C(C[C@@H](C)C[C@H](OC)[C@H](O)[C@@H](C)/C=C(\C)[C@@H]1OC(N)=O)C2=O
[1]
  selectivity ratio: 1.83
SK-OV-3; Homo sapiens, SK-OV-3, 72 h
  IC50: 2090 nM
PC-3; Homo sapiens, PC-3, 72 h
  IC50: 2150 nM
[2]
  selectivity ratio: 1.78
[3]
  IC50 at 72 h: 3820 nM
[4]
  selectivity ratio: 1.8
SK-BR-3; Homo sapiens, SK-BR-3, 72 h
  IC50: 2120 nM

## CO[C@H]1/C=C\C=C(/C)C(=O)NC2=CC(=O)C(NCCn3cc(-c4ccccn4)nn3)=C(C[C@@H](C)C[C@H](OC)[C@H](O)[C@@H](C)/C=C(\C)[C@@H]1OC(N)=O)C2=O
[1]
  selectivity ratio: 1.85
SK-OV-3; Homo sapiens, SK-OV-3, 72 h
  IC50: 1300 nM
PC-3; Homo sapiens, PC-3, 72 h
  IC50: 1210 nM
[2]
  selectivity ratio: 1.99
[3]
  IC50 at 72 h: 2410 nM
[4]
  selectivity ratio: 2.08
SK-BR-3; Homo sapiens, SK-BR-3, 72 h
  IC50: 1160 nM

## CO[C@H]1/C=C\C=C(/C)C(=O)NC2=CC(=O)C(NCc3cn(CC=C(C)C)nn3)=C(C[C@@H](C)C[C@H](OC)[C@H](O)[C@@H](C)/C=C(\C)[C@@H]1OC(N)=O)C2=O
[1]
  selectivity ratio: 1.47
SK-OV-3; Homo sapiens, SK-OV-3, 72 h
  IC50: 2160 nM
PC-3; Homo sapiens, PC-3, 72 h
  IC50: 2770 nM
[2]
  selectivity ratio: 1.15
[3]
  IC50 at 72 h: 3180 nM
[4]
  selectivity ratio: 1.57
SK-BR-3; Homo sapiens, SK-BR-3, 72 h
  IC50: 2030 nM

## CO[C@H]1/C=C\C=C(/C)C(=O)NC2=CC(=O)C(NCc3cn(Cc4ccsc4Br)nn3)=C(C[C@@H](C)C[C@H](OC)[C@H](O)[C@@H](C)/C=C(\C)[C@@H]1OC(N)=O)C2=O
[1]
  selectivity ratio: 1.7
SK-OV-3; Homo sapiens, SK-OV-3, 72 h
  IC50: 1020 nM
PC-3; Homo sapiens, PC-3, 72 h
  IC50: 1130 nM
[2]
  selectivity ratio: 1.53
[3]
  IC50 at 72 h: 1730 nM
[4]
  selectivity ratio: 1.65
SK-BR-3; Homo sapiens, SK-BR-3, 72 h
  IC50: 1050 nM

From ChEMBL document CHEMBL5370558, “Modifications of geldanamycin via CuAAC altering affinity to chaperone protein Hsp90 and cytotoxicity” (Eur J Med Chem, 2023)
